This note sets out measurements from US7262185B2, “Benzazepine derivative, process for producing the same, and use” (Takeda Chemical Industries Ltd., priority 2001, dated 2007).

The structures appear in SMILES notation.

The target of the first test is T1, human CCR5 chemokine receptor (Homo sapiens, UniProt P51681).
T1 construct: expressed in transfected cells
T1 sequence (P51681 whole entry): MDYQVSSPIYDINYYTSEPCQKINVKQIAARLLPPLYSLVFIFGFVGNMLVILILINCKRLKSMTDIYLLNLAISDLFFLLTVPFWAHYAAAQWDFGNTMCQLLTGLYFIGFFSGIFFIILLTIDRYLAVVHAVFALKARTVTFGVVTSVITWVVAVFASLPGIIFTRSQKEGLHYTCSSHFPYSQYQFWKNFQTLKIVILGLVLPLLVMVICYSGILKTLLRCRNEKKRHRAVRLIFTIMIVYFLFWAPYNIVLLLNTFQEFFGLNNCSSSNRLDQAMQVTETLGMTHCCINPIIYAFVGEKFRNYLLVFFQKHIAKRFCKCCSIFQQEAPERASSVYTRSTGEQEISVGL
Description: Inhibition of [125I]-RANTES binding to CCR5/CHO cells (CCR5 antagonistic activity). Conditions: 40 min, test compound 1 μM, [125I]-RANTES as ligand, room temperature, read-out: Binding Inhibitory Ratio (%). The procedure:
Cloning of CCR5 gene from human spleen cDNA was conducted using the PCR method. Using spleen cDNA (0.5 ng) (TOYOBO CO., LTD, QUICK-Clone cDNA) as a template, PCR was performed in a DNA Thermal Cycler 480 (manufactured by Perkin Elmer) (reaction conditions: 30 cycles of 95° C. for 1 minute, 60° C. for 1 minute, and 75° C. for 5 minutes) by adding primer sets, SEQ. ID NO: 1 (sequence length: 34; sequence type: nucleic acid; chain number: single strand; topology: linear; kind of sequence: other nucleic acid synthetic. DNA) described in Experimental. Example (1) of WO 99/32100, and SEQ ID NO: 2 (sequence length: 34; sequence type: nucleic acid; chain number: single strand; topology: linear; kind of sequence: other nucleic acid synthetic. DNA) described in Experimental. Example (1) of WO 99/32100, (25 pmol, respectively), which were prepared referring to the nucleotide sequence of CCR5 gene, as reported by Samson et al. (Biochemistry 35 (11), 3362-3367 (1996)) and by using TaKaRa. EX Taq (Takara Shuzo). The resultant. PCR product was subjected to agarose gel electrophoresis to collect an approximately 1.0 kb. DNA fragment, which was subjected to an Original TA Cloning Kit (Funakoshi Co., Ltd.) to carry out cloning of CCR5 gene.
The plasmid obtained above was digested with restriction enzymes XbaI (Takara Shuzo Co., Ltd.) and BamHI (Takara Shuzo Co., Ltd.), and then subjected to agarose gel electrophoresis to collect DNA fragment of about 1.0 kb. The DNA fragment and plasmid pcDNA 3.1 (Funakoshi. Co., Ltd.) for expression in animal cells, which was previously digested with XbaI and BamHI, were mixed and ligated by DNA Ligation Kit Ver. 2 (Takara Shuzo Co., Ltd.). The resulting plasmid was subjected to transformation into. E. coli JM109 competent cells (Takara Shuzo Co., Ltd.) to obtain plasmid pCKR5.
CHO-K1 cells were cultured in a 750-ml tissue culture flask (Becton, Dickinson and Company.) using. Ham F12 medium (NIHON PHARMACEUTICAL CO., LTD.) containing 10% fetal bovine serum (Lifetech Oriental) and were collected using 0.5 g/L trypsin-0.2 g/L EDTA (Lifetech Oriental). The cells were washed with PBS (Lifetech Oriental), centrifuged (1000 rpm, 5 minutes), and suspended in PBS. The DNA was introduced into the cells using a Gene Pulser (Bio-Rad Laboratories, Inc.) under the following conditions. Namely, 8×10^6 cells and 10 μg of plasmid pCKR5 for expression of human CCR5 were placed in a cuvette having a 0.4-cm gap, and electroporation was carried out with a voltage 0.25 kV and 960 μF of capacitance. Then, the cells were transferred into Ham's. F12 medium containing 10% fetal bovine serum, and incubated for 24 hours. The cells were collected, centrifuged, and suspended in Ham' F12 medium containing 10% fetal bovine serum and Geneticin (Lifetech Oriental) at a concentration of 500 μg/ml. The suspension of cells was diluted to a concentration of 10^4 cells/ml, and was inoculated onto 96-well plate (Becton Dickinson), to obtain Geneticin-resistant strain.
Then, resulting. Geneticin-resistant strain were cultured on 96-well plate (Becton Dickinson), and CCR5-expressing cells were selected from the resistant cells. Namely, in an assay buffer, (Ham's F12 medium containing 0.5% BSA, and 20 mM HEPES (Wako Pure Chemical Ind., pH 7.2)) to which was added […][125I]-RANTES (Amersham) as a ligand, the cells were subjected to a binding reaction at room temperature for 40 minutes. Wells containing the cells were washed with ice-cooled PBS, and 50 μl/well of 1M NaOH was added and stirred. The cells to which the ligand was bound specifically, i.e., CCR5/CHO cells, were selected by measurement of radioactivity using a […].
The CCR5/CHO cells were inoculated onto 96-well microplate at a concentration of 5×10^4 cells/well, and were cultured for 24 hours. After removal of the medium by aspiration, to each well was added an assay buffer containing a test compound (1 μM), and [125I]/RANTES (Amersham) used as a ligand at a concentration of […]. […]
Regarding `CCCCOCCOc1ccc(-c2ccc3c(c2)C=C(C(=O)Nc2ccc([S+]([O-])Cc4cccnc4)cc2)CCN3CC(C)C)cc1` (stereo not shown) [Compound 210, 7-[4-(2-butoxyethoxy)phenyl]-1-isobutyl-N-[4-[(3-pyridinylmethyl)sulfinyl]phenyl]-2,3-dihydro-1-benzazepine-4-carboxamide], the inhibition at 1 µM is 97%.
Still for that read-out and setting: the result for `CCCCOCCOc1ccc(-c2ccc3c(c2)C=C(C(=O)Nc2ccc(SCc4nccn4C)c(C)c2)CCN3CC(C)C)cc1` [Compound 355, 7-[4-(2-butoxyethoxy)phenyl]-1-isobutyl-N-[3-methyl-4-[[(1-methylimidazol-2-yl)methyl]sulfanyl]phenyl]-2,3-dihydro-1-benzazepine-4-carboxamide] reads 99%; that for `CCCCOCCOc1ccc(-c2ccc3c(c2)C=C(C(=O)Nc2ccc(OCc4nncn4CCC)cc2)CCN3CC(C)C)cc1` [Compound 26, 7-[4-(2-butoxyethoxy)phenyl]-1-isobutyl-N-[4-[(4-propyl-4H-1,2,4-triazol-3-yl)methoxy]phenyl]-2,3-dihydro-1H-1-benzazepine-4-carboxamide], 97%.
On to `CCCCOCCOc1ccc(-c2ccc3c(c2)C=C(C(=O)Nc2ccc([C@H](O)c4cccc[n+]4[O-])cc2)CCN3CC(C)C)cc1` [Compound 85, 7-[4-(2-butoxyethoxy)phenyl]-N-[4-[(S)-hydroxy(1-oxidopyridin-2-yl)methyl]phenyl]-1-isobutyl-2,3-dihydro-1H-1-benzazepine-4-carboxamide], for which the inhibition at 1 µM is 92%.
`CCCCOCCOc1ccc(-c2ccc3c(c2)C=C(C(=O)Nc2ccc(SCc4nncn4C)cc2)CCN3CC(C)C)cc1` [Compound 130, 7-[4-(2-butoxyethoxy)phenyl]-N-[4-(4-methyl-4H-1,2,4-triazol-3-ylmethylthio)phenyl]-1-isobutyl-2,3-dihydro-1H-1-benzazepine-4-carboxamide]: the inhibition at 1 µM was found to be 100%.
On to `CCCCOCCOc1ccc(-c2ccc3c(c2)C=C(C(=O)Nc2ccc([S+]([O-])Cc4cccnc4)c(OC)c2)CCN3CC(C)C)cc1` (stereo not shown) [Compound 240, 7-[4-(2-butoxyethoxy)phenyl]-1-isobutyl-N-[3-methoxy-4-[(3-pyridinylmethyl)sulfinyl]phenyl]-2,3-dihydro-1-benzazepine-4-carboxamide], for which the inhibition at 1 µM turned out to be 97%.
Still for that read-out and setting: the result for `CCCCOCCOc1ccc(-c2ccc3c(c2)C=C(C(=O)Nc2ccc(SCc4nccn4C4CC4)cc2)CCN3CC(C)C)cc1` [Compound 366, 7-[4-(2-butoxyethoxy)phenyl]-N-[4-[[[1-cyclopropylimidazol-2-yl]methyl]sulfanyl]phenyl]-1-isobutyl-2,3-dihydro-1-benzazepine-4-carboxamide] reads 96%; that for `CCCCOCCOc1ccc(-c2ccc3c(c2)C=C(C(=O)Nc2ccc([S+]([O-])Cc4nccn4CCCC(N)=O)cc2)CCN3CC(C)C)cc1` (single isomer, unassigned; (-)) [Compound 418, (−)-N-[4-[[[1-(4-amino-4-oxobutyl)-1H-imidazol-2-yl]methyl]sulfinyl]phenyl]-7-[4-(2-butoxyethoxy)phenyl]-1-isobutyl-2,3-dihydro-1H-1-benzazepine-4-carboxamide], 92%; that for `CCCCOCCOc1ccc(-c2ccc3c(c2)C=C(C(=O)Nc2ccc([S+]([O-])Cc4cncn4C4CC4)cc2)CCN3CC(C)C)cc1` (stereo not shown) [Compound 74, 7-[4-(2-butoxyethoxy)phenyl]-1-isobutyl-N-[4-[(3-cyclopropylimidazol-4-yl)methylsulfinyl]phenyl]-2,3-dihydro-1H-1-benzazepine-4-carboxamide], 97%.

Still in this test, the particulars now being: test compound 1 μM, [125I]-RANTES as ligand, room temperature, 40 minutes.
Consider `CCCCOCCOc1ccc(-c2ccc3c(c2)C=C(C(=O)Nc2ccc([S+]([O-])Cc4nccn4CCCO)cc2)CCN3CC(C)C)cc1` (stereo not shown) [Compound 437], for which the “Binding Inhibitory Ratio (%)” value worked out at 100%.
